Measurements reported in patent US20250026741A1, “INHIBITORS OF THE ONCOGENIC SHP2 PHOSPHATASE AND USES THEREOF” (Sanford Burnham Prebys Medical Discovery Institute, priority 2021, published 2025).
Where two headings read alike, the source gives them in different places.

Assays:
Assay type in all cases: biochemical
[1] = target: full-length SHP2-E76K oncogenic mutant (Homo sapiens (Human), UniProt Q06124, E76K); experiment: DiFMUP fluorescence intensity phosphatase inhibition assay, SHP2-E76K; conditions: DiFMUP at Km (20 μM), 10-point dose-response; read-out: SHP2-E76K IC50
Sequence of full-length SHP2-E76K oncogenic mutant (Q06124 whole entry E76K, the tested form may be a part): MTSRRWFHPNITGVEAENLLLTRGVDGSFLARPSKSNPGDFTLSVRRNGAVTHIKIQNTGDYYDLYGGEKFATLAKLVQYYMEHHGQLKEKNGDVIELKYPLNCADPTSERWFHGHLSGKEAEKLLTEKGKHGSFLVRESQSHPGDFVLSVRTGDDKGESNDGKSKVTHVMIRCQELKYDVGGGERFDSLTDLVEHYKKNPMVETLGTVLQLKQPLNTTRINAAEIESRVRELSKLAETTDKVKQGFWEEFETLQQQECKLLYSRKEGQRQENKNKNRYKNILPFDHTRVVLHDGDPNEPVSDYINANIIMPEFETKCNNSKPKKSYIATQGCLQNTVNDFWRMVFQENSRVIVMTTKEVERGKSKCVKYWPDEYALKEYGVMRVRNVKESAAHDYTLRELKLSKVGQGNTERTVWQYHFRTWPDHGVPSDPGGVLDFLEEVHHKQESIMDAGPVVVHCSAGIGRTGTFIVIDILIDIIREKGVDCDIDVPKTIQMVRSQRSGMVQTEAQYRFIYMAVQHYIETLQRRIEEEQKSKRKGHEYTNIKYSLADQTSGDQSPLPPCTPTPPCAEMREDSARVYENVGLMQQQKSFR
Description: (§1) To test the synthesized compounds for their potential to inhibit SHP2 activity, a fluorescence intensity-based assay using 6,8-difluoro-4-methylumbelliferyl phosphate (DiFMUP) as the substrate was adapted for three recombinant SHP2 constructs: 1) the SHP2 catalytic domain (SHP2cat; residues 248-527), 2) the full-length SHP2-E76K oncogenic mutant, and 3) the full-length SHP2 wild-type (SHP2-WT). The recombinant SHP2 proteins were expressed and purified. A dually phosphorylated peptide derived from the insulin receptor substrate 1 (IRS-1) served as a surrogate binding protein and was used to activate SHP2-WT. […] Michaelis-Menten experiments to determine the DiFMUP Michaelis-Menten constant (Kmn) for each SHP2 construct were performed and yielded the following values: SHP2-WT, Km=60 μM; SHP2-E76K, Km=20 μM; SHP2cat, Km=20 μM. Relative maximum rates (Vmax) of the DiFMUP reactions were as follows: SHP2-WT, Vmax=871 AFU/min; SHP2-E76K, Vmax, =2730 AFU/min; SHP2cat, Vmax=2912 AFU/min. IC50 values for each compound were determined from initial rates in 10-point dose-response assays using DiFMUP at a concentration corresponding to its Km value for the respective SHP2 construct.
(§2) SHP2 inhibitors were tested at room temperature (RT) in a 384-well plate format standard phosphatase fluorescence intensity assay using DiFMUP (Invitrogen/Thermo Fisher Scientific, Carlsbad, CA) as a substrate and a total reaction volume of 25 μL. SHP2 inhibitors or vehicle (DMSO) were spotted in triplicate into a black Greiner FLUOTRAC™ 200 384-well microplate (#781076, Greiner) for a 10-point dose-response assay using an Echo®555 Liquid Handler (Labcyte, Inc., San Jose, CA). PTP working solutions were prepared at a 0.625 nM concentration (for a final concentration of 0.5 nM) in buffer containing 50 mM Bis-Tris pH 6.0, 50 mM NaCl, 5 mM DTT, and 0.01% Tween® 20. Prior to the assay, a dually phosphorylated insulin receptor substrate 1 (IRS-1) peptide [625 nM (500 nMfinal) (30)] was added to full-length WT SHP2 working solutions and incubated for 20 min. DiFMUP working solutions at 5× final concentration were prepared in 50 mM Bis-Tris pH 6.0, 50 mMNaCl, and 0.01% Tween 20. 20 μL of PTP working solution was dispensed into the microplate and incubated with inhibitor for 20 min at RT. […] The reaction was initiated by addition of 5 μL DiFMUP working solutions. Fluorescence intensity was measured in kinetic mode (every minute for 7 or 10 min) using a Tecan Spark® Multimode Microplate Reader (Tecan, Groedig, Austria) with an excitation wavelength of 360 nm and an emission wavelength of 460 nm. The initial rates were determined from the linear progression curves of the PTP reaction. The nonenzymatic hydrolysis of the substrate was corrected by using a control without addition of enzyme. IC50 values were calculated from the corrected initial rates by nonlinear regression using the program GraphPad Prism (GraphPad Software, Inc., San Diego, CA) Version 8. Dose-response inhibition assays of SHP2cat using the substrate OMFP were performed similarly as described above for DiFMUP. OMFP was used at a concentration corresponding to its Km value for SHP2cat (50 μM final). Fluorescence intensity was measured in kinetic mode (every minute for 10 min) using a Tecan Spark Multimode Microplate Reader with an excitation wavelength of 485 nm and an emission wavelength of 535 nm. Initial rates were determined and IC50 vales calculated as described above.

[2] = target: full-length SHP2 wild-type (SHP2-WT) (Homo sapiens (Human), UniProt Q06124); experiment: DiFMUP fluorescence intensity phosphatase inhibition assay, SHP2-WT activated with IRS-1 peptide; conditions: DiFMUP at Km (60 μM), IRS-1 peptide activated
Description: as §1, §2

[3] = target: SHP2 catalytic domain (SHP2cat; residues 248-527) (Homo sapiens (Human), UniProt Q06124); experiment: DiFMUP fluorescence intensity phosphatase inhibition assay, SHP2cat
Sequence of SHP2 catalytic domain (SHP2cat; residues 248-527) (Q06124 248-527): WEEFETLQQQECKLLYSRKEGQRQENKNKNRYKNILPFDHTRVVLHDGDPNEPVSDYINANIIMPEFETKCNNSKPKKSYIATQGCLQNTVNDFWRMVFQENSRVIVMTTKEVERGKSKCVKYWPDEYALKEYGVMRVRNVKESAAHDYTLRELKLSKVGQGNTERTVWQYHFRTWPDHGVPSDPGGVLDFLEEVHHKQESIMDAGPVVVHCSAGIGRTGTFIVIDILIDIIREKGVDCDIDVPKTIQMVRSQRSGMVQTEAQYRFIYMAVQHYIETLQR
Description: as §1, §2

[4] = target: PTP1B catalytic domain (Homo sapiens (Human), UniProt P18031); experiment: DiFMUP phosphatase inhibition assay, PTP1B; conditions: catalytic domain, DiFMUP at Km (25 μM)
Sequence of PTP1B catalytic domain (P18031 1-300): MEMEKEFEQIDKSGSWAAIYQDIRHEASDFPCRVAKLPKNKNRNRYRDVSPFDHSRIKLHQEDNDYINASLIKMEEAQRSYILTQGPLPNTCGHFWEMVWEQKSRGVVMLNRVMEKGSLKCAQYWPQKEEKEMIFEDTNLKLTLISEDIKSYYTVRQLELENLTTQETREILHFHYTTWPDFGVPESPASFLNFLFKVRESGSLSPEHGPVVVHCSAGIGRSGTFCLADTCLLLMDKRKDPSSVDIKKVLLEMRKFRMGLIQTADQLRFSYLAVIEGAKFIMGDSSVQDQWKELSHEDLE
Procedure: (§3) Selectivity is one of the biggest challenges in PTP inhibitor development. […] Similar to SHP2, we adapted a 384-well plate format DiFMUP assay for recombinant PTP1B and STEP and performed Michaelis-Menten experiments to determine DiFMUP Km values for each phosphatase. IC50 values of our inhibitors for PTP1B and STEP were determined in 10-point dose-response assays with DiFMUP used at the concentration corresponding to the respective Km value. […] Other inhibitors with good relative selectivity for SHP2 included #02 (13-fold selective over PTP1B; 73-fold selective over STEP) and #05 (5-fold selective over PTP1B; >71-fold selective over STEP).
as §2

[5] = target: striatal-enriched tyrosine phosphatase (STEP) catalytic domain (Homo sapiens (Human), UniProt P54829); experiment: DiFMUP phosphatase inhibition assay, STEP; conditions: catalytic domain, DiFMUP at Km (4 μM)
Sequence of striatal-enriched tyrosine phosphatase (STEP) catalytic domain (P54829 280-565 limits assumed): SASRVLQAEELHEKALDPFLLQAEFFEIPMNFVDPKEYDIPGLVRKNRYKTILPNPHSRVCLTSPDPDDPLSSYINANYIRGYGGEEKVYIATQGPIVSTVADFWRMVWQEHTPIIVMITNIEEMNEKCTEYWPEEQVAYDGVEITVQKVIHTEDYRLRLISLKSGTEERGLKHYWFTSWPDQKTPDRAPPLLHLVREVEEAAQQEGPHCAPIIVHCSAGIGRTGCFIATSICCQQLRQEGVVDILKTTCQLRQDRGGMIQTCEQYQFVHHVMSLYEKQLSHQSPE
Procedure: as §3, §2

[6] = DiFMUP at Km (20 μM), read-out: SHP2cat IC50

Row | SMILES | IC50 [1] [µM] | IC50 [2] [µM] | IC50 [3, 6] [µM] | IC50 ([3]; catalytic domain, DiFMUP at Km, read-out: SHP2 IC50) [µM] | IC50 [4] [µM] | IC50 [5] [µM]
1 | O=C1CCC/C1=C\c1ccc(-c2ccc(O)c(C(=O)Nc3ccccc3)c2)o1 [#03, 2-Hydroxy-5-(5-((2-oxocyclopentylidene)methyl)furan-2-yl)-N-phenylbenzamide] | 1 to 20 | 1 to 20 | 1 to 20 | 1.1 | 1.9 | 27
2 | Nc1cccc(NC(=O)c2cc(-c3ccc(/C=C4\Sc5ccccc5C4=O)o3)ccc2O)c1 [#08, (Z)—N-(3-aminophenyl)-2-hydroxy-5-(5-((3-oxobenzo[b]thiophen-2(3H)-ylidene)methyl)furan-2-yl)benzamide] | 1 to 20 | 1 to 20 | 1 to 20 | – | – | –
3 | O=C1/C(=C/c2ccc(-c3ccc(O)c(-c4nn[nH]n4)c3)o2)Sc2ccccc21 [#04, (Z)-2-((5-(4-Hydroxy-3-(2H-tetrazol-5-yl)phenyl)furan-2-yl)methylene)benzo[b]thiophen-3(2H)-one] | 1 to 20 | 1 to 20 | 1 to 20 | – | – | –
4 | O=C(NNc1ccccc1)c1cc(-c2ccc(/C=C3\Sc4ccccc4C3=O)o2)ccc1O [#11, (Z)-2-Hydroxy-5-(5-((3-oxobenzo[b]thiophen-2(3H)-ylidene)methyl)furan-2-yl)-N′-phenylbenzohydrazide] | 1 to 20 | 1 to 20 | 1 to 20 | – | – | –
5 | O=C(O)c1cc(-c2ccc(/C=C3\Oc4ccccc4C3=O)o2)ccc1O [#07, (Z)-2-Hydroxy-5-(5-((3-oxobenzofuran-2(3H)-ylidene)methyl)furan-2-yl)benzoic acid] | 1 to 20 | 1 to 20 | 1 to 20 | – | – | –
6 | O=C1CCC/C1=C\c1ccc(-c2ccc(O)c(C(=O)O)c2)o1 [#06, 2-Hydroxy-5-(5-((2-oxocyclopentylidene)methyl)furan-2-yl)benzoic acid] | 1 to 20 | 20 to 100 | 1 to 20 | – | – | –
7 | COc1ccc(-c2ccc(/C=C3\Sc4ccccc4C3=O)o2)cc1C(=O)O [#35] | 1 to 20 | 20 to 100 | – | – | – | –
8 | CN1CCN(C(=O)c2cc(-c3ccc(/C=C4\Sc5ccccc5C4=O)o3)ccc2O)CC1 [#23, (Z)-2-((5-(4-Hydroxy-3-(4-methylpiperazine-1-carbonyl)phenyl)furan-2-yl)methylene)benzo[b]thiophen-3(2H)-one] | ≥ 100 | ≥ 100 | – | – | – | –
9 | O=C1/C(=C/c2ccc(O)c(C(=O)O)c2)CC/C1=C\c1ccc(O)c(C(=O)O)c1 [#47] | 1 to 20 | 1 to 20 | – | – | – | –
10 | O=C1CCCC/C1=C\c1ccc(-c2ccc(O)c(C(=O)O)c2)o1 [#14, 2-Hydroxy-5-(5-((2-oxocyclohexylidene)methyl)furan-2-yl)benzoic acid] | 20 to 100 | 20 to 100 | – | – | – | –
11 | O=C1/C(=C/c2ccc(-c3ccc(O)c(C(=O)N4CCCCC4)c3)o2)Sc2ccccc21 [#12, (Z)-2-((5-(4-Hydroxy-3-(piperidine-1-carbonyl)phenyl)furan-2-yl)methylene)benzo[b]thiophen-3(2H)-one] | 1 to 20 | 20 to 100 | 1 to 20 | – | – | –

More lines, now with the values ahead:

Row | IC50 [1] [µM] | IC50 [2] [µM] | IC50 [3, 6] [µM] | IC50 ([3]; catalytic domain, DiFMUP at Km, read-out: SHP2 IC50) [µM] | IC50 [4] [µM] | IC50 [5] [µM] | SMILES
12 | 1 to 20 | 1 to 20 | 1 to 20 | – | – | – | N#Cc1cccc(-c2ccc(/C=C/C(=O)/C=C/c3ccc(-c4cccc(C#N)c4)o3)o2)c1 [#46]
13 | ≤ 1 | ≤ 1 | ≤ 1 | – | – | – | O=C1/C(=C/c2ccc(-c3ccc(O)c(C(=O)O)c3)o2)CCC/C1=C\c1ccc(-c2ccc(O)c(C(=O)O)c2)o1 [#40]
14 | ≤ 1 | ≤ 1 | ≤ 1 | – | – | – | O=C(/C=C/c1ccc(-c2cccc(C(=O)O)c2)o1)/C=C/c1ccc(-c2cccc(C(=O)O)c2)o1 [#41]
15 | ≤ 1 | ≤ 1 | ≤ 1 | – | – | – | O=C1/C(=C/c2ccc(-c3cccc(C(=O)O)c3)o2)CC/C1=C\c1ccc(-c2cccc(C(=O)O)c2)o1 [#42]
16 | ≤ 1 | 1 to 20 | ≤ 1 | – | – | – | O=C(/C=C/c1ccc(-c2ccc(O)c(C(=O)O)c2)o1)c1cccc(C(=O)/C=C/c2ccc(-c3ccc(O)c(C(=O)O)c3)o2)c1 [#43]
17 | 1 to 20 | 1 to 20 | 1 to 20 | – | – | – | O=C(O)c1cccc(-c2ccc(/C=C/C(=O)c3cccc(C(=O)/C=C/c4ccc(-c5cccc(C(=O)O)c5)o4)c3)o2)c1 [#45]
18 | 20 to 100 | 20 to 100 | – | – | – | – | O=C1CCC/C1=C\c1ccc(-c2cccc(C(=O)O)c2)o1 [#36]
19 | 1 to 20 | 1 to 20 | 1 to 20 | – | – | – | O=C(O)c1cc(-c2ccc(/C=C3\Cc4ccccc4C3=O)o2)ccc1O [#09, 2-Hydroxy-5-(5-((1-oxo-1,3-dihydro-2H-inden-2-ylidene)methyl)furan-2-yl)benzoic acid]
20 | 1 to 20 | 1 to 20 | – | – | – | – | C/C=C1\CC/C(=C\c2ccc(-c3ccc(O)c(C(=O)O)c3)o2)C1=O [#27]
21 | 1 to 20 | 1 to 20 | – | – | – | – | O=C(O)c1cccc(-c2ccc(/C=C3\Sc4ccccc4C3=O)o2)c1 [#31]
22 | 1 to 20 | 1 to 20 | – | – | – | – | O=C(O)c1cccc(-c2cccc(/C=C3\Sc4ccccc4C3=O)c2)c1 [#30]
